Laboratory results reported in PMC8296708, “The pan HDAC inhibitor Givinostat improves muscle function and histological parameters in two Duchenne muscular dystrophy murine models expressing different haplotypes of the LTBP4 gene” (Skeletal Muscle, 2021).

Columns and labels:
Type in all cases: in vivo, mouse (D2.B10-Dmd^mdx/J)
[1] = tested on: D2.B10 mice; assay: Grip strength test (FNmax) in D2.B10 mice; conditions: for FNmax from day 62 onwards: Givinostat 5, 10 and 37.5 mg/kg, vs vehicle; for FNmax from day 62 onwards / FNmax from day 21 until days 49-62: prednisone 1 mg/kg i.p. weekly; for FNmax from day 21 until days 49-62: Givinostat 10 and 37.5 mg/kg
From the text: (§1) For the efficacy studies, C57BL/10 J (Stock No: 000665) wild type (wt) and C57BL/10ScSn-Dmd^mdx/J (Stock No: 001801) 7–8-week-old male mice, DBA/2J wt (Stock No: 000671), and D2.B10-Dmd^mdx/J (Stock No: 013141) 6–7-week-old male mice were purchased from The Jackson Laboratories (Bar Harbor, Maine, USA). After 5 days of acclimatization in the animal facility, mice were randomized into different treatment groups based on their BW. C57BL/10J wt mice were assigned to the naive wt group (healthy mice that received no treatment, but were subjected to functional tests), whereas mdx mice were assigned to the following groups (9 mice/group; 4–5 mice/cage): naive mdx (mice that received no treatment, but were subjected to functional tests), vehicle (0.5% methylcellulose, p.o.), and Givinostat (0.1, 0.3, 1, 5, 10, 25, and 37.5 mg/kg, p.o.). DBA/2J mice were assigned to the naive wt group (healthy mice that received no treatment, but were subjected to functional tests), whereas D2.B10 mice were assigned to the following groups (12–13 mice/group; 4–5 mice/gage): vehicle (filtered tap water, p.o.), Givinostat (1, 5, 10, and 37.5 mg/kg, p.o.), prednisone 1 mg/kg, and Deflazacort 1 mg/kg (i.p.).
(§2) In the efficacy studies, Givinostat powder (ITF2357) was suspended in 0.5% methylcellulose (Sigma-Aldrich) and administered p.o. (by gavage) at the doses of 0.1, 0.3, 1, 5, 10, 25, and 37.5 mg/kg qdx5x15weeks (administration volume per mouse: 10 mL/kg) in mdx mice (see Additional Figure 1A). Vehicle-treated mdx mice received 0.5% methylcellulose suspension. Givinostat suspension was stored at + 4 °C, and it was freshly prepared every 7 days. Probably due to the impairment of their tongue and masticatory muscles, the oral gavage procedure turned out to be difficult to perform, and chronic treatment of D2.B10 mice by this route was considered to bear a high risk of damaging the esophagus. For this reason, Givinostat was administered in the drinking water. Givinostat was dissolved in filtered tap water and was administered in drinking water (throughout 24 h) for 105 days at the dose of 1, 5, 10, and 37.5 mg/kg/day, according to a daily estimate of water consumption of 4 ml/mouse/day. Water consumption was weekly monitored throughout the entire duration of the study weighing the bottle of each cage (maximum 4 mice per cage). Prednisone and Deflazacort powder (Sigma-Aldrich) was dissolved in 2% DMSO (Sigma-Aldrich) and diluted in sterile saline on injection days. Both drugs were administered weekly (for 15 weeks) by i.p. injection at the dose of 1 mg/kg in a volume of 10 mL/kg. Givinostat and steroid treatments started on days 7 and 9 of the experimental plan, respectively (see Additional Figure 1B). All mice were monitored daily and tolerability was evaluated on the basis of BW and clinical signs.
In both efficacy studies, the effectiveness of treatments was evaluated every week by measuring the forelimb strength by a grip strength meter (Ugo Basile SRL, Italy). BW of mdx (see Additional Figure 2) and D2.B10 mice (see Additional Figure 3) was also measured in order to normalize the absolute grip strength of each mouse with respect to its BW. The protocol provides 5 measurements for each mouse (the procedure was compliant with the standard operating procedures of TREAT–NMD Neuromuscular Network). The highest recorded value of maximal normalized strength (FNmax) obtained for each mouse at all the time points (from T0 to T15) was used for further analysis.
After taking baseline readings for behavioral assays (FNmax and distance run by the animals), mice were re-randomized based on these two parameters, also considering the previous randomization performed on their BW.
The grip strength and run to exhaustion tests were performed during the light-cycle phase, in the early hours of the morning (8:00–11:30 am). […]

[2] = tested on: D2.B10 mice; assay: Treadmill run to exhaustion test in D2.B10 mice; conditions: for Effect on distance run, significance: Deflazacort, prednisone 1 mg/kg, lower doses of Givinostat
From the text: as §1, §2
Run to exhaustion performance of mdx and D2.B10 mice was evaluated every 14 or 21 days, respectively, using a treadmill apparatus (Ugo Basile SRL, Italy). The exhaustion protocol consisted in an initially horizontal running at 5 m/min for 5 min after which the speed was increased 1 m/min every minute until exhaustion (the procedure was compliant with the standard operating procedures of TREAT–NMD Neuromuscular Network). […]
After taking baseline readings for behavioral assays (FNmax and distance run by the animals), mice were re-randomized based on these two parameters, also considering the previous randomization performed on their BW. […]

[3] = Body weight of D2.B10 mice
Protocol: as §2, with “Givinostat and steroid treatments started on days 7 and 9 of the experimental plan, respectively (see Additional Figure 1B).” left out
In both efficacy studies, the effectiveness of treatments was evaluated every week by measuring the forelimb strength by a grip strength meter (Ugo Basile SRL, Italy). BW of mdx (see Additional Figure 2) and D2.B10 mice (see Additional Figure 3) was also measured in order to normalize the absolute grip strength of each mouse with respect to its BW. […] The highest recorded value of maximal normalized strength (FNmax) obtained for each mouse at all the time points (from T0 to T15) was used for further analysis.

Row | Structure (SMILES) | Lowest dose with significant effect on FNmax from day 21 to day 104 [1] [mg/kg] | Effect on FNmax ([1]; 1-37.5 mg/kg/day in drinking water) | Time interval of significant FNmax improvement ([1]; Deflazacort 1 mg/kg i.p. weekly, Givinostat 1 mg/kg) | FNmax from day 62 onwards [1] | FNmax from day 21 until days 49-62 [1] | Difference in FNmax, Givinostat 37.5 mg/kg vs Deflazacort ([1]; days 90 and 97, p < 0.05 and p < 0.01) | Dose of maximal efficacy on FNmax ([1]; drinking water) [mg/kg] | Significant differences in FNmax, Givinostat 37.5 mg/kg versus prednisone ([1]; p < 0.05) | Effect on distance run, significance [2] | Distance run ([2]; Givinostat top dose (37.5 mg/kg), day 105 (vehicle 296 ± 17 m)) [meters] | Time to exhaustion ([2]; highest dose, day 105) | Body weight vs vehicle-treated mice ([3]; D2.B10 mice) | Effect of steroid on FNmax in comparison ([1]; 1 mg/kg i.p. weekly, all the treatment period) | Body weight vs vehicle-treated mice ([3]; mouse, in vivo)
1 | CCN(CC)Cc1ccc2cc(COC(=O)Nc3ccc(C(=O)NO)cc3)ccc2c1 [Givinostat] | 10 | dose-dependent | from day 42 to days 90/104 | remained significantly elevated until day 104 | increased the FNmax of D2.B10-treated mice to that of wt healthy mice | a significant difference was also seen | 37.5 | observed only at days 90 and 97 | not statistically significant | 473 ± 22 | significantly prolonged the time to exhaustion | no significant differences | – | –
2 | C[C@]12C=CC(=O)C=C1CC[C@@H]1[C@@H]2C(=O)C[C@@]2(C)[C@H]1CC[C@]2(O)C(=O)CO [prednisone] | – | – | – | remained significantly elevated until day 104 | increased the FNmax of D2.B10-treated mice to that of wt healthy mice | – | – | – | not statistically significant | – | – | – | comparable to that of Givinostat 5 e 10 mg/kg | no significant differences
